Laboratory results: patent US4172143A, “2-Methoxy-benzamide derivatives” (priority 1974, dated 1979)
Structures can show the parent of a compound that is named as a salt. Where two headings read alike, the source gives them in different places.

What was measured:
in vivo = settings: for LD50 at 48 h: LD 50 over 48 hours
Experimental: The compounds were administered in the form of their hydrochlorides or of their methanesulphonates.
The acute toxicity was evaluated in Swiss CDl mice of both sexes, of average weight 20 g. The 50% lethal dose (LD 50) of each product was determined by a graphical method.

[1] = system: stereotypies induced by apomorphine; assay: Antagonism towards stereotypies induced by apomorphine in rats (method of Janssen); assay type: in vivo, male Sprague-Dawley (Charles River) rats; settings: for ED50: Rattus norvegicus, read-out: Antagonism to stereotypies induced by apomorphine in rats, AD 50; for Antagonism to stereotypies induced by apomorphine in rats, AD 50: oral; for antagonism to stereotypies induced in rats by apomorphine: oral administration
From the text: (1) Antagonism towards stereotypies induced by apomorphine in male Sprague-Dawley (Charles River) rats of average weight 130 g, in accordance with the method of Janssen and colleagues (Arzneim. Forsch. 1960, 10, 1003).
(§1) In these two tests, the results are expressed by the 50% active doses (AD 50).

[2] = system: emetic effect induced by apomorphine; assay: Antagonism towards emetic effect induced by apomorphine in dogs; assay type: in vivo; settings: Canis lupus familiaris, emesis induced by apomorphine, read-out: Antiemetic activity in dogs, AD 50
From the text: Some compounds have also antiemetic activity which was studied with the following test:
(4) Antagonism towards emetic effect induced by apomorphine in dogs (Shallek et al, Arch. Int. Pharmacodyn. 174 (1968) N°. 2, 350-372. Boissier et al, Med. Exp. 6 (1962), 320-326). The results are expressed in active doses 50% (AD 50) and set in Table IX.

[3] = Catalepsy-inducing effect in rats (method of Tedeschi); assay type: in vivo, male Sprague-Dawley (Charles River) rats; settings: for TD50: rat, in vivo, ip
From the text: (2) Catalepsy-inducing effect in rats of the same species and of the same weight, in accordance with the method of Tedeschi and colleagues (Arch. Intern. Pharmacodyn. 1959, 122, 129).
as §1

[4] = Protection against a stress due to an environment and new feedstuffs (method of Stephens); assay type: in vivo, mice; settings: dose producing 40% increase in feedstuff taken, * no activity was observed up to this dose; for ED40: Mus musculus, po, read-out: Protection against stress in mice, AD 40
Experimental: (3) Protection against a stress due to an environment and due to new feedstuffs, in male […] (CDl strain, weight about 20 g) in accordance with the method of Stephens (Brit. J. Pharmacol. 1973, 49, 146 P.). The doses (AD 40) which produce a 40% increase in the feedstuff taken were determined.

[5] = Neuro-pharmacological tests (overall conclusion); assay type: in vivo
From the text: The neuro-pharmacological activity was studied with the aid of the following three tests: […]

[6] = mouse, in vivo, ip, intraperitoneal, mice
[7] = ip, intraperitoneal, results for hydrochlorides given in weight of base
[8] = po, hydrochlorides in weight of base, * = no activity was observed up to this dose
[9] = hydrochlorides in weight of base, * = no activity was observed up to this dose

COc1ccc(S(N)(=O)=O)cc1C(=O)NCC1CCCN1C(C)c1ccccc1 (single isomer, unassigned) [SL-D.222 (cl), 1(-)-N-[(1-α-methylbenzyl-pyrrolidinyl-2-)-methyl]-2-methoxy-5-sulphamoyl-benzamide]
LD50 at 48 h (in vivo; [6]): 625 mg/kg

COc1ccc(S(=O)(=O)N(C)C)cc1C(=O)NCC1CCCN1CC1CC1 (stereo not shown) [77.149]
ED50 [1, 7]: 3 mg/kg | ED50 [2]: 0.04 mg/kg | LD50 at 48 h (in vivo; [6]): 240 mg/kg

COc1ccc(S(C)(=O)=O)cc1C(=O)NCC1CCCN1Cc1ccc(F)cc1 (stereo not shown) [SL-D.163 (cl)]
ED50 [1, 7]: 3 mg/kg | LD50 at 48 h (in vivo; [6]): 400 mg/kg

COc1ccc(S(N)(=O)=O)cc1C(=O)NC[C@@H]1CCCN1CC1CCCCC1 [77 205 (S) (+) (ms)]
ED50 [2]: 0.014 mg/kg

COc1ccc(S(N)(=O)=O)cc1C(=O)NCC1CCCN1CC=Cc1ccc(F)cc1 (stereo not shown) [SL-D.194 (cl)]
LD50 at 48 h (in vivo; [6]): > 2000 mg/kg

COc1ccc(S(N)(=O)=O)cc1C(=O)NCC1CCCN1Cc1cccc(Cl)c1 (stereo not shown) [SL-C.193 (cl)]
TD50 [3]: > 300 mg/kg

COc1ccc(S(C)(=O)=O)cc1C(=O)NCC1CCCN1CC1CC1 (stereo not shown) [77.173]
ED50 [1, 7]: 1.5 mg/kg | LD50 at 48 h (in vivo; [6]): 235 mg/kg

COc1ccc(S(N)(=O)=O)cc1C(=O)NCC1CCCN1CCC#N (stereo not shown) [Sl-C.262 (cl), N-[1-(2-cyanoethyl)-pyrrolidinyl-2-methyl]-2-methoxy-5-sulphamoyl-benzamide]
LD50 at 48 h (in vivo; [6]): > 2000 mg/kg

COc1ccc(S(N)(=O)=O)cc1C(=O)NCC1CCCN1Cc1ccc(F)cc1 (racemic) [SL-C.205 (racemic) (ms), N-[(1-p-fluorobenzyl-pyrrolidinyl-2)-methyl]-2-methoxy-5-sulphamoyl-benzamide]
Antagonism to stereotypies induced by apomorphine in rats, AD 50 ([1]; hydrochlorides in weight of base, * = no activity was observed up to this dose, racemic (ms)): 75 mg/kg | LD50 at 48 h (in vivo; mouse, in vivo, iv, mice): 190 mg/kg | ED40 [4]: 60 mg/kg

COc1ccc(S(N)(=O)=O)cc1C(=O)NCC1CCCN1C(c1ccccc1)c1ccccc1 (stereo not shown) [SL-D.090 (cl)]
LD50 at 48 h (in vivo; [6]): > 1500 mg/kg

COc1ccc(S(N)(=O)=O)cc1C(=O)NCC1CCCN1CC1CC1 (racemic) [SL-C.036 (racemic) (cl), N-[(1-cyclopropylmethyl-pyrrolidinyl-2)-methyl]-2-methoxy-5-sulphamoyl-benzamide]
ED50 [1, 7]: 15 mg/kg | ED50 [2]: 0.037 mg/kg | LD50 at 48 h (in vivo; [6]): 400 mg/kg

COc1ccc(S(N)(=O)=O)cc1C(=O)NCC1CCCN1Cc1ccc(F)cc1 (stereo not shown) [SL-C.205, N-[(1-p-fluorobenzyl-pyrrolidinyl-2)-methyl]-2-methoxy-5-sulphamoyl-benzamide]
antagonism to stereotypies induced in rats by apomorphine [1]: powerful antagonistic agent | activity compared with Sulpiride ([5]; than Sulpiride): markedly more active | toxicity compared with Sulpiride (in vivo; than Sulpiride): much less toxic | induction of catalepsy ([3]; up to high doses): does not induce catalepsy up to high doses

COc1ccc(S(N)(=O)=O)cc1C(=O)NCC1CCCN1Cc1ccc(F)cc1 (racemic) [SL-C.205 (racemic) (cl), N-[(1-p-fluorobenzyl-pyrrolidinyl-2)-methyl]-2-methoxy-5-sulphamoyl-benzamide]
ED50 [1, 7]: 30 mg/kg | ED50 [1, 8]: 85 mg/kg | LD50 at 48 h (in vivo; [6]): 750 mg/kg | LD50 at 168 h (in vivo; mouse, in vivo, po, LD 50, oral, mice, 7 days): 3000 mg/kg | TD50 [3]: > 480 mg/kg

CCN1CCCC1CNC(=O)c1cc(S(N)(=O)=O)ccc1OC (stereo not shown) [Sulpiride (cl), N-[(1-ethylpyrrolidinyl-2)-methyl]-2-methoxy-5-sulphamoyl-benzamide hydrochloride, reference compound]
ED50 [1, 7]: 60 mg/kg | ED50 [1, 8]: > 600 mg/kg | antagonism to stereotypies induced in rats by apomorphine [1]: inactive | TD50 [3]: > 100 mg/kg

COc1ccc(S(N)(=O)=O)cc1C(=O)NCC1CCCN1CC1CCCCC1 (stereo not shown) [77.205]
ED50 [1, 7]: 8 mg/kg | LD50 at 48 h (in vivo; [6]): 360 mg/kg

COc1ccc(S(N)(=O)=O)cc1C(=O)NC[C@@H]1CCCN1CC1CC1 [77.075 (S) (+) (ms), N-[(1-cyclopropylmethyl-pyrrolidinyl-2)-methyl]-2-methoxy-5-sulphamoyl-benzamide]
ED50 [1, 7]: 4 mg/kg | LD50 at 48 h (in vivo; [6]): 350 mg/kg

COc1ccc(S(N)(=O)=O)cc1C(=O)NCC1CCCN1Cc1cccc(F)c1 (stereo not shown) [SL-D.193 (cl), N-[(1-m-fluorobenzyl-pyrrolidinyl-2)-methyl]-2-methoxy-5-sulphamoyl-benzamide]
ED50 [1, 7]: 150 mg/kg | LD50 at 48 h (in vivo; [6]): > 2000 mg/kg | ED40 [4]: 30 mg/kg

COc1ccc(S(N)(=O)=O)cc1C(=O)NCC1CCCN1Cc1ccccc1F (stereo not shown) [SL-D.192 (cl)]
LD50 at 48 h (in vivo; [6]): > 2000 mg/kg | ED40 [4]: 30 mg/kg

C#CCN1CCCC1CNC(=O)c1cc(S(N)(=O)=O)ccc1OC (stereo not shown) [SL-C.299 (cl)]
ED50 [1, 7]: 80 mg/kg | LD50 at 48 h (in vivo; [6]): 170 mg/kg | TD50 [3]: > 150 mg/kg

COc1ccc(S(N)(=O)=O)cc1C(=O)NCC1CCCN1C(C)c1ccccc1 (single isomer, unassigned) [SL-D.223 (cl)]
LD 50 over 48 hours (in vivo; mouse, in vivo, ip, 2880 min): 650 mg/kg

COc1ccc(Cl)cc1C(=O)NCC1CCCN1Cc1ccc(F)cc1 (stereo not shown) [SL-D.165 (cl), N-[(1-p-fluorobenzyl-pyrrolidinyl-2)-methyl]-2-methoxy-5-chloro-benzamide]
ED50 [1, 7]: 1.5 mg/kg | LD50 at 48 h (in vivo; [6]): 275 mg/kg | ED40 [4]: 30 mg/kg

COc1ccc(S(N)(=O)=O)cc1C(=O)NCC1CCCN1Cc1ccc(F)cc1 (single isomer, unassigned) [SL-C.205 1 (ms), N-[(1-p-fluorobenzyl-pyrrolidinyl-2)-methyl]-2-methoxy-5-sulphamoyl-benzamide]
Antagonism to stereotypies induced by apomorphine in rats, AD 50 [1, 9]: > 150 mg/kg | activity in neuro-pharmacological tests ([5]; in vivo): practically inactive | LD50 at 48 h (in vivo; mouse, in vivo, iv, mice): 160 mg/kg | ED40 [4]: > 30 mg/kg

CCS(=O)(=O)c1ccc(OC)c(C(=O)NCC2CCCN2CC2CC2)c1 (stereo not shown) [77.206]
ED50 [1, 7]: 3 mg/kg | LD50 at 48 h (in vivo; [6]): 310 mg/kg

COc1ccc(S(N)(=O)=O)cc1C(=O)NCC1CCCN1Cc1ccc(F)cc1 (single isomer, unassigned) [SL-C.205 d (ms), N-[(1-p-fluorobenzyl-pyrrolidinyl-2)-methyl]-2-methoxy-5-sulphamoyl-benzamide]
Antagonism to stereotypies induced by apomorphine in rats, AD 50 [1, 9]: 50 mg/kg | activity relative to the racemic compound ([5]; depending on the chosen method of evaluation): 1.5 times or twice | LD 50 over 48 hours (in vivo; mouse, in vivo, iv): 160 mg/kg | Protection against stress in mice, AD 40 ([4]; oral): 30 mg/kg
